According to article PMC6359543, “Efficacy of Azatyrosine-Phenylbutyric Hydroxamides, a Histone Deacetylase Inhibitor, on Chemotherapy-Induced Gastrointestinal Mucositis” (International Journal of Molecular Sciences, 2019):
Read-outs that look alike come from different tables or passages of the source.

Experiments:
[1] = tested on: acetyl-histone H3; experiment: Western blot of acetyl-histone H3 in IEC-6 cells; format: cell-based, Rat; conditions: AzP 5, 10 and 20 μM, 24 h
Experimental: Figure 3 In vitro histone deacetylase (HDAC) activity. […] Cell lysates were used for acetyl-histone H3 protein expression by Western blot. Data are expressed as means ± SD from 3 independent experiments. *** p < 0.001 as compared with the resting and ** p < 0.01 as compared with the resting (B).
(§1) IEC-6 cells were incubated in different AzP concentrations with/without LPS stimulation for 24 h. The homogenate from cells or tissues was then centrifuged at 14,000× g for 10 min at 4 °C and the supernatant was collected. Protein separation was performed using 10% reducing SDS-PAGE, electrotransferred onto polyvinylidene difluoride (PVDF), and immunoblotted with antibodies against inflammatory proteins as well as β-actin as control. Densitometry was performed using BioLight software V2000.01 (Uhldingen-Mühlhofen, Germany). The optical density of specific protein was normalized to an internal control and expressed as a ratio to control.

[2] = molecular target: T1, HDAC1 (Homo sapiens, UniProt Q13547); experiment: HDAC fluorometric activity assay, HDAC1; format: biochemical
T1 construct: purchased Enzo Life Sciences, Farmingdale, NY, USA
T1 sequence (Q13547 whole entry, species assumed): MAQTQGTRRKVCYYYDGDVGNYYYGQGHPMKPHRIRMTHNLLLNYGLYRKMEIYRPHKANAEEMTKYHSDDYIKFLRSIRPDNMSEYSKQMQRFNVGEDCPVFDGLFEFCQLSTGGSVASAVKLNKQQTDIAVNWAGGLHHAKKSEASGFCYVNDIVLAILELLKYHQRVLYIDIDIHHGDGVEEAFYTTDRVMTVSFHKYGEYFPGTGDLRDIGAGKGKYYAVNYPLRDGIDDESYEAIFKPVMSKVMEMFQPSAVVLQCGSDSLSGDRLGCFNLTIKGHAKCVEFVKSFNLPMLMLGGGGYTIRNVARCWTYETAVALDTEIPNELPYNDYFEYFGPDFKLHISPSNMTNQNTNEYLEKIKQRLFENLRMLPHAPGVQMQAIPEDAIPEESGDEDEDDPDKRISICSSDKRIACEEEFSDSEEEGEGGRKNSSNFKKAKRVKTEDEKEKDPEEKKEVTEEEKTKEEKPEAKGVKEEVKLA
Experimental: (§2) Pan HDAC enzyme (all the known class I HDACs-HDAC1, HDAC2, HDAC3, HDAC8 and class II HDACs 4-7, 9 and 10), HDAC subtype 1, 3 and 4 activity were determined by using the HDAC fluorometric cellular activity assay (Enzo Life Sciences, Farmingdale, NY, USA) according to the manufacturer’s protocol. […] Percent activity for each of the test compounds is calculated as follows:
(§3) Activity = {(Sc − B)/(S° − B)} × 100. […] IC50 was then calculated and represented as mean ± SD.

[3] = tested on: Salmonella typhimurium TA1537; experiment: Salmonella/microsome reversion assay (Ames test), TA1537; format: cell-based
[4] = tested on: Chinese Hamster Ovary cells (CHO-K1); experiment: Chromosome aberration assay; format: cell-based; conditions: for Number of cells with structural aberrations (%) B: chromosome break / Number of cells with structural aberrations (%) e: exchange / Number of cells with structural aberrations (%) G: chromosome gap / Number of cells with structural aberrations (%) b: chromatid break / Aberrant cell (%) With gap / Aberrant cell (%) Without gap / Number of cells with structural aberrations (%) D: dicentric / Number of cells with structural aberrations (%) g: chromatid gap: Chinese hamster
Experimental: Chinese hamster ovary epithelial cells (CHO-K1, American Type Culture Collection, Manassas, VA, USA) were cultured in 6-cm dishes at a density of 2 × 10^5 cells/mL for chromosomal abnormality analysis. […] Colemid (0.1 μg/mL) was administered 3 h before trypsinization, followed by treatment with 0.9% sodium citrate at 37 °C and Carnoy’s solution (methanol:acetic acid, 3:1). The cells were stained with 3% Giemsa solution in 0.07 M phosphate buffer (pH 6.8) on glass slides. […] The data were expressed as the total mean number of chromosomal aberrations per treatment ± standard deviation (SD) from three independent experiments.

[5] = tested on: Salmonella typhimurium TA98; experiment: Salmonella/microsome reversion assay (Ames test), TA98; format: cell-based
[6] = molecular target: Pan HDAC enzyme; experiment: HDAC fluorometric activity assay, pan HDAC; format: biochemical
Experimental: as §2, §3

[7] = tested on: C57BL/6 mice
[8] = tested on: IEC-6 cells; experiment: LPS-induced inflammatory protein expression in IEC-6 cells (Western blot); format: cell-based, Rat; conditions: LPS 500 ng/mL 8 h, AzP 1–20 μM
Experimental: Figure 5 Hierarchical clustering and KEGG analyses of gene profiles of the AzP-manipulated IEC-6 cells. (A) Two independent experiments were performed, samples were named C1, C2 as control group (1% dimethyl sulfoxide (DMSO)); LPS1, LPS2 as lipopolysaccharide (LPS) 500 ng/mL group; LPS + AzP1, LPS + AzP2 as LPS 500 ng/mL and AzP 20 μM group. Heat maps showing the clustering analysis of the IEC-6 cells with different treatments (1% DMSO, LPS 500 ng/mL and/or AzP 20 μM) indicates up-regulation (red), down-regulation (green), and mean gene expression (black). […] IEC-6 cells were treated with LPS 500 ng/mL for 8 h and/or AzP 1–20 μM, Western blot performed and immunoblotted with several inflammatory protein expressions including MMP-9 (C), IL-1β (D), iNOS (E), and IL-6 (F). Density was measured and calculated. ### p < 0.001 as compared with the control, ## p < 0.01 as compared with the control, # p < 0.05 as compared with the control, * p < 0.05 as compared with the LPS-treated group, ** p < 0.01 as compared with the LPS-treated group and *** p < 0.001 as compared with LPS-treated group.
as §1

Compound: CC(C)(C)OC(=O)NC(Cc1ccc(OCc2ccccc2)cn1)C(=O)Nc1ccc(CCCC(=O)NO)cc1 (stereo not shown) [AzP, Azatyrosine-phenylbutyric hydroxamides]
- histone acetylation (acetyl-histone H3, Western blot) [1]: elevated histone acetylation
- IC50 [2]: 3440 ± 680 nM
- Ames test result, TA1537 (-S9) ([3]; -S9): Negative
- Revertant colonies per plate (+S9) TA1537 ([3]; AzP 0.00245 mg/plate): 32.3±3
- Revertant colonies per plate (-S9) TA1537 ([3]; AzP 0.00245 mg/plate): 15±0.5
- Revertant colonies per plate (+S9) TA1537 ([3]; AzP 0.0049 mg/plate): 35.3±2.2
- Revertant colonies per plate (-S9) TA1537 ([3]; AzP 0.0049 mg/plate): 10.7±0.9
- Revertant colonies per plate (+S9) TA1537 ([3]; AzP 0.0098 mg/plate): 29.3±2.2
- Revertant colonies per plate (-S9) TA1537 ([3]; AzP 0.0098 mg/plate): 10±0.6
- Revertant colonies per plate (+S9) TA1537 ([3]; AzP 0.0195 mg/plate): 27.3±2.7
- Revertant colonies per plate (-S9) TA1537 ([3]; AzP 0.0195 mg/plate): 10±2
- Revertant colonies per plate (+S9) TA1537 ([3]; AzP 0.0391 mg/plate): 22.1±2.5
- Revertant colonies per plate (-S9) TA1537 ([3]; AzP 0.0391 mg/plate): 11.8±6
- Revertant colonies per plate (+S9) TA1537 ([3]; AzP 0.0781 mg/plate): 16±2.5
- Revertant colonies per plate (-S9) TA1537 ([3]; AzP 0.0781 mg/plate): 12±4.9
- Revertant colonies per plate (+S9) TA1537 ([3]; AzP 0.156 mg/plate): 18±1
- Revertant colonies per plate (-S9) TA1537 ([3]; AzP 0.156 mg/plate): 14.7±2
- Ames test result, TA1537 (|S9) ([3]; second S9 group): Negative
- Chromosome aberration assay result [4]: Negative
- Number of cells with structural aberrations (%) B: chromosome break ([4]; 3 h, 5 µg/mL): 0.00±0.00%
- Number of cells with structural aberrations (%) e: exchange ([4]; 3 h, 5 µg/mL): 0.00±0.00%
- Number of cells with structural aberrations (%) B: chromosome break ([4]; 3 h, 10 µg/mL): 0.00±0.00%
- Number of cells with structural aberrations (%) G: chromosome gap ([4]; 3 h, 10 µg/mL): 0.00±0.00%
- Number of cells with structural aberrations (%) b: chromatid break ([4]; 3 h, 10 µg/mL): 0.00±0.00%
- Number of cells with structural aberrations (%) e: exchange ([4]; 3 h, 10 µg/mL): 0.00±0.00%
- Number of cells with structural aberrations (%) B: chromosome break ([4]; 3 h, 20 µg/mL): 0.00±0.00%
- Number of cells with structural aberrations (%) G: chromosome gap ([4]; 3 h, 20 µg/mL): 0.00±0.00%
- Aberrant cell (%) With gap ([4]; 24 h, 5 µg/mL): 4.33±0.58%
- Aberrant cell (%) Without gap ([4]; 24 h, 5 µg/mL): 1.67±1.53%
- Number of cells with structural aberrations (%) B: chromosome break ([4]; 24 h, 5 µg/mL): 0.00±0.00%
- Number of cells with structural aberrations (%) D: dicentric ([4]; 24 h, 5 µg/mL): 0.33±0.58%
- Number of cells with structural aberrations (%) G: chromosome gap ([4]; 24 h, 5 µg/mL): 0.33±0.58%
- Number of cells with structural aberrations (%) b: chromatid break ([4]; 24 h, 5 µg/mL): 1.00±1.00%
- Number of cells with structural aberrations (%) e: exchange ([4]; 24 h, 5 µg/mL): 0.33±0.58%
- Number of cells with structural aberrations (%) g: chromatid gap ([4]; 24 h, 5 µg/mL): 2.33±1.53%
- Aberrant cell (%) With gap ([4]; 24 h, 10 µg/mL): 4.00±1.00%
- Aberrant cell (%) Without gap ([4]; 24 h, 10 µg/mL): 2.67±1.53%
- Number of cells with structural aberrations (%) B: chromosome break ([4]; 24 h, 10 µg/mL): 0.00±0.00%
- Number of cells with structural aberrations (%) D: dicentric ([4]; 24 h, 10 µg/mL): 0.67±0.58%
- Number of cells with structural aberrations (%) G: chromosome gap ([4]; 24 h, 10 µg/mL): 0.67±0.58%
- Number of cells with structural aberrations (%) b: chromatid break ([4]; 24 h, 10 µg/mL): 1.33±0.58%
- Number of cells with structural aberrations (%) e: exchange ([4]; 24 h, 10 µg/mL): 0.67±0.58%
- Number of cells with structural aberrations (%) g: chromatid gap ([4]; 24 h, 10 µg/mL): 1.33±0.58%
- Aberrant cell (%) With gap ([4]; 24 h, 20 µg/mL): 4.33±0.58%
- Aberrant cell (%) Without gap ([4]; 24 h, 20 µg/mL): 0.67±0.58%
- Number of cells with structural aberrations (%) B: chromosome break ([4]; 24 h, 20 µg/mL): 0.33±0.58%
- Number of cells with structural aberrations (%) D: dicentric ([4]; 24 h, 20 µg/mL): 0.00±0.00%
- Number of cells with structural aberrations (%) G: chromosome gap ([4]; 24 h, 20 µg/mL): 0.33±0.58%
- Number of cells with structural aberrations (%) b: chromatid break ([4]; 24 h, 20 µg/mL): 0.00±0.00%
- Number of cells with structural aberrations (%) e: exchange ([4]; 24 h, 20 µg/mL): 0.00±0.00%
- Number of cells with structural aberrations (%) g: chromatid gap ([4]; 24 h, 20 µg/mL): 3.33±0.58%
- Ames test result, TA98 (-S9) ([5]; -S9): Negative
- Revertant colonies per plate (+S9) TA98 ([5]; AzP 0.00245 mg/plate): 59.7±3.8
- Revertant colonies per plate (-S9) TA98 ([5]; AzP 0.00245 mg/plate): 42±4.6
- Revertant colonies per plate (+S9) TA98 ([5]; AzP 0.0049 mg/plate): 58.3±4.7
- Revertant colonies per plate (-S9) TA98 ([5]; AzP 0.0049 mg/plate): 29±5.7
- Revertant colonies per plate (+S9) TA98 ([5]; AzP 0.0098 mg/plate): 56.3±3.4
- Revertant colonies per plate (-S9) TA98 ([5]; AzP 0.0098 mg/plate): 24±5.4
- Revertant colonies per plate (+S9) TA98 ([5]; AzP 0.0195 mg/plate): 59.7±0.7
- Revertant colonies per plate (-S9) TA98 ([5]; AzP 0.0195 mg/plate): 33.7±3
- Revertant colonies per plate (+S9) TA98 ([5]; AzP 0.0391 mg/plate): 62.7±2.3
- Revertant colonies per plate (-S9) TA98 ([5]; AzP 0.0391 mg/plate): 33.7±2.8
- Revertant colonies per plate (+S9) TA98 ([5]; AzP 0.0781 mg/plate): 56.3±2.2
- Revertant colonies per plate (+S9) TA98 ([5]; AzP 0.156 mg/plate): 61±1.2
- Revertant colonies per plate (+S9) TA98 ([5]; AzP 0.3125 mg/plate): 69.7±5.8
- Revertant colonies per plate (+S9) TA98 ([5]; AzP 0.625 mg/plate): 64±2.9
- Ames test result, TA98 (|S9) ([5]; second S9 group): Negative
- IC50 [6]: 1650 ± 103 nM
- structure of intestinal mucosa, villus length and crypt depth (H&E) ([7]; 250 mg/kg/day group, days 3 and 5): restored
- Relative mean body weight (day 0 = 100%) ([7]; day 5, AzP 50 mg/kg gavage days −1, 0, 1 + cisplatin 11 mg/kg): 78.7 ± 4.7%
- Relative mean body weight (day 0 = 100%) ([7]; day 5, AzP 100 mg/kg gavage days −1, 0, 1 + cisplatin 11 mg/kg): 80.5 ± 3.4%
- Relative mean body weight (day 0 = 100%) ([7]; day 5, AzP 250 mg/kg gavage days −1, 0, 1 + cisplatin 11 mg/kg): 89.1 ± 8.1%
- MCP-1 expression in intestine (IHC) ([7]; day 5, cisplatin 11 mg/kg): dose-dependently reduced
- Serum IL-6 level (ELISA) ([7]; day 5, cisplatin 11 mg/kg): inhibit cisplatin-induced IL-6 production in a dose-dependent manner
- TNF-α expression in intestine (IHC) ([7]; day 5, cisplatin 11 mg/kg): dose-dependently reduced
- LPS-induced IL-1β protein expression [8]: concentration-dependently inhibited
- LPS-induced IL-6 protein expression [8]: concentration-dependently inhibited
- LPS-induced MMP9 protein expression [8]: concentration-dependently inhibited
- protein expression of iNOS [8]: unaffected
